# Patent publication US20260219277A1, “NOVEL FLUORESCENT COMPOUND, AND COMPOSITION FOR DETECTING GINGIPAIN, COMPOSITION FOR DIAGNOSING PORPHYROMONAS GINGIVALIS INFECTION, OR ANTIBACTERIAL COMPOSITION AGAINST PORPHYROMONAS GINGIVALIS USING SAME” (priority 2023, published 2026)
# Legend:
# Rgp = Rgp (Porphyromonas gingivalis, UniProt P28784); assay: Fluorescence spectrum after culture with Rgp; format: binding, P. gingivalis; details: 10 μM, λex=425 nm; for detection of Rgp (fluorescence compared to PBS), in words: λem=450-700 nm
# Procedure: (§1) Specifically, after the gingipains (Kgp and Rgp) secreted from P. gingivalis, calpain, which is a cysteine protease, and trypsin, which is a serine protease, were cultured with fluorescent compound DTC630 (10 μM), a fluorescence spectrum was measured (λex=425 nm, λem=450-700 nm).
# (§2) In addition, the degree of fluorescence reaction of fluorescent compound DTC630 (1, 3, 10, 30, and 100 μM) was measured at each concentration for Kgp, Rgp, calpain, and trypsin (final concentration: 0.3 mg/mL).
# [1] = test system: P. gingivalis conditioned medium (P.g. C.M.); design: species or system Porphyromonas gingivalis; details: for increase in fluorescence in the P. gingivalis conditioned medium (P.g. C.M.): compared to the basic TSB media
# Source text: (§3) Specifically, P. gingivalis is known to secrete gingipain (Kgp, Rgp) and outer membrane vesicles (OMVs) (FIG. 1A). Causative bacteria of periodontitis, i.e., P. gingivalis, F. nucleatum, and A. actinomycetecomitans, were observed using a scanning electron microscope (SEM) (FIG. 1B). Afterward, the conditioned media (C.M.) were isolated (FIG. 1C).
# (§4) Therefore, the present inventors screened 24 types of thiol-reactive fluorescent compound libraries using the conditioned media. Here, four types of thiol-reactive MitoTrackers were used as control materials.
# (§5) After culturing living P. gingivalis, F. nucleatum, and A. actinomycetecomitans with the fluorescent compound DTC630, and MitoTracker™ Red, cell-specific fluorescence reactions were compared.
# calpain = assay: Fluorescence spectrum after culture with calpain; format: binding, human; details: 10 μM, λex=425 nm; for detection of calpain (fluorescence compared to PBS), in words: λem=450-700 nm
# Procedure: as §1, §2
# trypsin = assay: Fluorescence spectrum after culture with trypsin; format: binding, human; details: 10 μM, λex=425 nm; for detection of trypsin (fluorescence compared to PBS), in words: λem=450-700 nm
# Procedure: as §1, §2
# Kgp = assay: Fluorescence spectrum after culture with Kgp; format: binding, P. gingivalis; details: 10 μM, λex=425 nm; for detection of Kgp (fluorescence compared to PBS), in words: λem=450-700 nm
# Procedure: as §1, §2
# [2] = test system: F. nucleatum conditioned medium (F.n. C.M.); assay: Fluorescence reaction in F. nucleatum conditioned medium; details: compared to the basic TSB media
# Source text: as §3, §4, §5
# [3] = test system: A. actinomycetecomitans conditioned medium (A.a C.M.); assay: Fluorescence reaction in A. actinomycetecomitans conditioned medium; details: compared to the basic TSB media
# Source text: as §3, §4, §5
# Sequence of Rgp (P28784 228-991): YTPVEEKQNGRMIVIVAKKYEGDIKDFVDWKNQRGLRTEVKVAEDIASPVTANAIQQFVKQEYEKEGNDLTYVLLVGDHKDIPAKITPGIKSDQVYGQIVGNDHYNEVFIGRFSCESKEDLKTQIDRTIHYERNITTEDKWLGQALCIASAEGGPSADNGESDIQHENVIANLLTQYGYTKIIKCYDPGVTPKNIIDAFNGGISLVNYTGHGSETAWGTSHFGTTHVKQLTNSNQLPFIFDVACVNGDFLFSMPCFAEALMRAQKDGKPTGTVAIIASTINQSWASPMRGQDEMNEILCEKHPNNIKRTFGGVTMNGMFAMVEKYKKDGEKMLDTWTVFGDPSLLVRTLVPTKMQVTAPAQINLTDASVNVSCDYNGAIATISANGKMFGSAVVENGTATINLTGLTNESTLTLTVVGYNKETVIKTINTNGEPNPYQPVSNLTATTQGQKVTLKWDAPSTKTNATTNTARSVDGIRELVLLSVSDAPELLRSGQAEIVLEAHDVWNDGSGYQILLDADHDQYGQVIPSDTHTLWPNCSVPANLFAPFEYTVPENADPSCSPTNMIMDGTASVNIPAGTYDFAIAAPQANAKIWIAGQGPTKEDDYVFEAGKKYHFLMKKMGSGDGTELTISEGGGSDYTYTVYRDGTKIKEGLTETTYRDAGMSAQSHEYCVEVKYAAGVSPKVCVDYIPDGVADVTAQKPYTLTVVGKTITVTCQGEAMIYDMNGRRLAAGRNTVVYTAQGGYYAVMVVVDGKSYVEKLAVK
SMILES,"detection of Rgp (fluorescence compared to PBS), in words (Rgp)","selectivity of fluorescence reaction for P. gingivalis conditioned medium (library screen heatmap) ([1]; fluorescence magnification for TSB medium, screen of 24 thiol-reactive fluorescent compounds)","detection of calpain (fluorescence compared to PBS), in words (calpain)","detection of trypsin (fluorescence compared to PBS), in words (trypsin)",fluorescence increase for Kgp compared to PBS (Kgp) [fold],"detection of Kgp (fluorescence compared to PBS), in words (Kgp)",fluorescence increase for Rgp compared to PBS (Rgp) [fold],increase in fluorescence in the P. gingivalis conditioned medium (P.g. C.M.) [1] [fold],increase in fluorescence in the F. nucleatum conditioned medium (F.n. C.M.) [2] [fold],increase in fluorescence in the A. actinomycetecomitans conditioned medium (A.a C.M.) [3] [fold],fluorescence increase for calpain compared to PBS (calpain) [fold],fluorescence increase for trypsin compared to PBS (trypsin) [fold]
"CN(C)c1ccc(-c2ccc(C=C(C#N)C#N)cc2)cc1 [DTC2352, 2-((4′-(dimethylamino)-[1,1′-biphenyl]-4-yl)methylene)malononitrile]",no increase in fluorescence,does not exhibit a P. gingivalis-selective fluorescence reaction,no increase in fluorescence,no increase in fluorescence,3±0,no increase in fluorescence,–,–,–,–,–,–
ClCc1ccc(C2=c3cc4c5c(c3Oc3c2cc2c6c3CCCN6CCC2)CCC[N+]=5CCC4)cc1.[Cl-] [MitoTracker™ Red],increase in fluorescence,–,increase in fluorescence,increase in fluorescence,145±5,increase in fluorescence,126±6,5.6±0.6,3.2±0.1,4.5±0.1,163±1,93±9
"CN(C)c1ccc(-c2ccc(/C=C(\C#N)c3nnn[nH]3)cc2)cc1 [DTC630, (E)-3-(4′-(dimethylamino)-[1,1′-biphenyl]-4-yl)-2-(1H-tetrazol-5-yl) acrylonitrile]",–,–,–,–,–,–,–,6.2±0.2,1.6±0.1,1.5±0.1,–,–
